In ChEMBL document CHEMBL1156251, “Structure--activity relationships of polymyxin antibiotics” (J Med Chem, 2010):
Converted amounts (≈) assume the structure as drawn. “And” between values parts separate entries of the source, which are not always exact repeats. Equal entries are not always repeated. *1 amine or outer side, *2 acyl side, *3 side chain or, on linkers, in order; H or OH if unused. Where a SMILES comes first, the peptide text is derived from it. Bridges are numbered along the chain shown (N, C = ends). [ ]: non-standard residue; d: D form. The star is where a group is joined. X1 = NC(=O)[C@@H](CS[*:2])C(=O)[*:1]; Heptanoyl = CCCCCCC(=O)*; Dab = NCC[C@H](N)C(=O)O

Assays:
Escherichia coli = assay: Antimicrobial activity against Escherichia coli; assay type: functional
Salmonella enterica = assay: Antimicrobial activity against Salmonella enterica; assay type: functional
Pseudomonas aeruginosa = assay: Antimicrobial activity against Pseudomonas aeruginosa; assay type: functional, organism-based
Lipopolysaccharide (LPS) = assay: Displacement of dansyl-PMB from LPS by isothermal titration calorimetry

Compound | MIC (Escherichia coli) | MIC (Salmonella enterica) | MIC (Pseudomonas aeruginosa) [µM] | IC50 (Lipopolysaccharide (LPS)) | Ka (Lipopolysaccharide (LPS))
CCCCCCCC(=O)N[C@@H](CCN)C(=O)N[C@H](C(=O)N[C@@H](CCN)C(=O)N[C@H]1CCNC(=O)[C@H]([C@@H](C)O)NC(=O)[C@H](CCN)NC(=O)[C@H](CCN)NC(=O)[C@H](CC(C)C)NC(=O)[C@@H](C)NC(=O)[C@H](CCN)NC1=O)[C@@H](C)O | 1 µM (≈ 1.11 µg/mL) | 1 µM | 1 (≈ 1.11 µg/mL) | 6 nmol/mL | 
CC(=O)N[C@@H](CCN)C(=O)N[C@H](C(=O)N[C@@H](CCN)C(=O)N[C@H]1CCNC(=O)[C@H]([C@@H](C)O)NC(=O)[C@H](CCN)NC(=O)[C@H](CCN)NC(=O)[C@H](CC(C)C)NC(=O)[C@@H](Cc2ccccc2)NC(=O)[C@H](CCN)NC1=O)[C@@H](C)O [DEACYL POLYMYXIN B] (Ac-[Dab]T[Dab][Dab][Dab][dF]L[Dab][Dab]T; lactam 4-C) | 8 µM and 30 µg/mL | 16 µM | 4 (≈ 4.42 µg/mL) | 13 nmol/mL | 
CC(C)C[C@@H]1NC(=O)[C@@H](Cc2ccccc2)NC(=O)[C@H](CCN)NC(=O)[C@@H](NC(=O)[C@H](CCN)NC(=O)[C@@H](NC(=O)[C@H](C)NC(=O)[C@@H](C)NC(=O)[C@H](C)N)[C@@H](C)O)CCNC(=O)[C@H]([C@@H](C)O)NC(=O)[C@H](CCN)NC(=O)[C@H](CCN)NC1=O [DESFA-[ALA-ALA-ALA1]POLYMYXIN B] | 64 µM (≈ 75.3 µg/mL) | 128 µM | 128 (≈ 151 µg/mL) | >= 32 nmol/ml | 
CCCCCCCC(=O)N[C@H]1CCNC(=O)[C@H]([C@@H](C)O)NC(=O)[C@H](CCN)NC(=O)[C@H](CCN)NC(=O)[C@H](CC(C)C)NC(=O)[C@@H](Cc2ccccc2)NC(=O)[C@H](CCN)NC1=O | 128 µM (≈ 114 µg/mL) | 128 µM | 128 (≈ 114 µg/mL) | 30 nmol/mL | 
CCCCCCCC(=O)N[C@@H](CCN)C(=O)N[C@H]1CCNC(=O)[C@H]([C@@H](C)O)NC(=O)[C@H](CCN)NC(=O)[C@H](CCN)NC(=O)[C@H](CC(C)C)NC(=O)[C@@H](Cc2ccccc2)NC(=O)[C@H](CCN)NC1=O | 16 µM (≈ 15.8 µg/mL) | 16 µM | 8 (≈ 7.91 µg/mL) | 14 nmol/mL | 
CCCCCCCC(=O)N[C@@H](CCN)C(=O)N[C@H](C(=O)N[C@@H](CCN)C(=O)N[C@H]1CCNC(=O)[C@H]([C@@H](C)O)NC(=O)[C@H](CCN)NC(=O)[C@H](CCNC(C)=O)NC(=O)[C@H](CC(C)C)NC(=O)[C@@H](Cc2ccccc2)NC(=O)[C@H](CCN)NC1=O)[C@@H](C)O | 2 µM (≈ 2.46 µg/mL) | 4 µM | 2 (≈ 2.46 µg/mL) | 26 nmol/mL | 
CCCCCCCC(=O)N[C@@H](CCN)C(=O)N[C@H](C(=O)N[C@@H](CCN)C(=O)N[C@H]1CCNC(=O)[C@H]([C@@H](C)O)NC(=O)[C@H](CCN)NC(=O)[C@H](CCN)NC(=O)[C@H](C)NC(=O)[C@@H](C)NC(=O)[C@H](CCN)NC1=O)[C@@H](C)O | 2 µM (≈ 2.14 µg/mL) | 32 µM | 4 (≈ 4.29 µg/mL) | 8 nmol/mL | 
CC(C)C[C@@H]1NC(=O)[C@@H](Cc2ccccc2)NC(=O)[C@H](CCN)NC(=O)[C@@H](NC(=O)[C@H](CCN)NC(=O)[C@@H](NC(=O)[C@H](CCCCN)NC(=O)O)[C@@H](C)O)CCNC(=O)[C@H]([C@@H](C)O)NC(=O)[C@H](CCN)NC(=O)[C@H](CCN)NC1=O [DESFA-[LYS1]POLYMYXIN B] | 16 µM (≈ 18.2 µg/mL) | 32 µM | 32 (≈ 36.3 µg/mL) | 22 nmol/mL | 
CCCCCCCC(=O)N[C@@H](CCN)C(=O)N[C@H](C(=O)N[C@@H](CCN)C(=O)N[C@H]1CCNC(=O)[C@H]([C@@H](C)O)NC(=O)[C@H](CCN)NC(=O)[C@H](CCN)NC(=O)[C@H](C)NC(=O)[C@@H](Cc2ccccc2)NC(=O)[C@H](CCN)NC1=O)[C@@H](C)O | 1 µM (≈ 1.15 µg/mL) | 1 µM | 1 (≈ 1.15 µg/mL) | 5 nmol/mL | 
CC(C)C[C@@H]1NC(=O)[C@@H](Cc2ccccc2)NC(=O)[C@H](CCN)NC(=O)[C@@H](NC(=O)[C@H](CCN)NC(=O)[C@@H](NC(=O)[C@H](CCCNC(=N)N)NC(=O)O)[C@@H](C)O)CCNC(=O)[C@H]([C@@H](C)O)NC(=O)[C@H](CCN)NC(=O)[C@H](CCN)NC1=O [DESFA-[ARG1]POLYMYXIN B] | 8 µM (≈ 9.31 µg/mL) | 16 µM | 16 (≈ 18.6 µg/mL) | 15 nmol/mL | 
CCCCCCCC(=O)N[C@@H](CCN)C(=O)N[C@H](C(=O)N[C@@H](CCN)C(=O)N[C@H]1CCNC(=O)[C@H]([C@@H](C)O)NC(=O)[C@H](CCN)NC(=O)[C@H](CCN)NC(=O)[C@H](CC(C)C)NC(=O)C(Cc2c[nH]c3ccccc23)NC(=O)[C@H](CCN)NC1=O)[C@@H](C)O (stereo in doubt) | 2 µM (≈ 2.46 µg/mL) | 2 µM | 2 (≈ 2.46 µg/mL) | 6 nmol/mL | 
CCCCCCC(=O)N[C@@H](CCN)C(=O)N[C@H](C(=O)N[C@@H](CCN)C(=O)N[C@H]1CCNC(=O)[C@H]([C@@H](C)O)NC(=O)[C@H](CCN)NC(=O)[C@H](CCN)NC(=O)[C@H](CC(C)C)NC(=O)[C@@H](Cc2ccccc2)NC(=O)[C@H](CCN)NC1=O)[C@@H](C)O [POLYMYXIN B4] (Heptanoyl-[Dab]T[Dab][Dab][Dab][dF]L[Dab][Dab]T; lactam 4-C) | 0.5 µM (≈ 0.588 µg/mL) | 0.5 µM | 0.5 (≈ 0.588 µg/mL) | 10 nmol/mL | 
CCCCCCCC(=O)N[C@H](C(=O)N[C@@H](CCN)C(=O)N[C@H]1CCNC(=O)[C@H]([C@@H](C)O)NC(=O)[C@H](CCN)NC(=O)[C@H](CCN)NC(=O)[C@H](CC(C)C)NC(=O)[C@@H](Cc2ccccc2)NC(=O)[C@H](CCN)NC1=O)[C@@H](C)O (stereo in doubt; 231) [Octanoyl Polymixin B nonapeptide] | 2 µM (≈ 2.18 µg/mL) | 2 µM | 2 (≈ 2.18 µg/mL) | 12 nmol/mL | 
CC(C)C[C@H](NC(=O)O)C(=O)N[C@H](C(=O)N[C@@H](CCN)C(=O)N[C@H]1CCNC(=O)[C@H]([C@@H](C)O)NC(=O)[C@H](CCN)NC(=O)[C@H](CCN)NC(=O)[C@H](CC(C)C)NC(=O)[C@@H](Cc2ccccc2)NC(=O)[C@H](CCN)NC1=O)[C@@H](C)O [DESFA-[LEU1]POLYMYXIN B] | 16 µM (≈ 17.9 µg/mL) | 32 µM | 64 (≈ 71.7 µg/mL) | >= 32 nmol/ml | 
CCCCCCCC(=O)N[C@@H](CCN)C(=O)N[C@H](C(=O)N[C@@H](CCN)C(=O)N[C@H]1CCNC(=O)[C@@H]([C@@H](C)O)NC(=O)[C@H](CCN)NC(=O)[C@H](CCN)NC(=O)[C@H](CC(C)C)NC(=O)[C@@H](Cc2ccccc2)NC(=O)[C@H](CCN)NC1=O)[C@@H](C)O [POLYMYXIN B3] | 0.5 µM (≈ 0.595 µg/mL) | 0.5 µM | 1 (≈ 1.19 µg/mL) | 8 nmol/mL | 
CC(C)C[C@@H]1NC(=O)[C@@H](Cc2ccccc2)NC(=O)[C@H](CCN)NC(=O)[C@@H](NC(=O)[C@@H](N)CCN)CCNC(=O)[C@H]([C@@H](C)O)NC(=O)[C@H](CCN)NC(=O)[C@H](CCN)NC1=O [POLYMYXIN B OCTAPEPTIDE] (H-[Dab][Dab][Dab][dF]L[Dab][Dab]T; lactam 2-C) | ≥ 128 µM and ≥ 300 µg/mL | 256 µM | 64 (≈ 55.2 µg/mL) | 21 nmol/mL | 
CC(C)C[C@@H]1NC(=O)[C@@H](Cc2ccccc2)NC(=O)[C@H](CCN)NC(=O)[C@@H](NC(=O)[C@H](CCN)NC(=O)[C@@H](NC(=O)[C@H](CCC(=O)O)NC(=O)O)[C@@H](C)O)CCNC(=O)[C@H]([C@@H](C)O)NC(=O)[C@H](CCN)NC(=O)[C@H](CCN)NC1=O [DESFA-[GLU1]POLYMYXIN B] | ≥ 256 µM | > 256 µM | 256 (≈ 291 µg/mL) | >= 32 nmol/ml | 
CCCCCCCC(=O)N[C@@H](CCN)C(=O)N[C@H](C(=O)N[C@@H](CCN)C(=O)N[C@H]1CCNC(=O)[C@H]([C@@H](C)O)NC(=O)[C@H](CCN)NC(=O)[C@H](CCN)NC(=O)[C@H](Cc2c[nH]c3ccccc23)NC(=O)[C@@H](Cc2ccccc2)NC(=O)[C@H](CCN)NC1=O)[C@@H](C)O | 2 µM (≈ 2.53 µg/mL) | 2 µM | 2 (≈ 2.53 µg/mL) | 5 nmol/mL | 
CC(C)C[C@@H]1NC(=O)[C@@H](Cc2ccccc2)NC(=O)[C@H](CCN)NC(=O)[C@@H](NC(=O)[C@H](CCN)NC(=O)[C@@H](NC(=O)[C@H](CCCNC(=N)N)NC(=O)[C@@H](CCCNC(=N)N)NC(=O)[C@@H](N)CCCNC(=N)N)[C@@H](C)O)CCNC(=O)[C@H]([C@@H](C)O)NC(=O)[C@H](CCN)NC(=O)[C@H](CCN)NC1=O [DESFA-[ARG-ARG-ARG1]POLYMYXIN B] | 16 µM (≈ 22.9 µg/mL) | 64 µM | 1 (≈ 1.43 µg/mL) | 3 nmol/mL | 
CC(C)C[C@@H]1NC(=O)[C@H](Cc2ccccc2)NC(=O)[C@H](CCCCN)NC(=O)[C@@H](C(N)=O)CSSC[C@@H](C(=O)N[C@@H](CCCCN)C(=O)N[C@H](C(=O)NCC(=O)N[C@@H](CCCCN)C(=O)O)[C@@H](C)O)NC(=O)[C@H](CCCCN)NC(=O)[C@H](CCCCN)NC1=O (KFLKKCKTGK-OH; linker N-6 via X1) |  | > 1000 µg/mL |  |  | 0.56 10^7/M
CC(C)C[C@@H]1NC(=O)[C@H](Cc2ccccc2)NC(=O)[C@H](CCCCN)NC(=O)[C@@H](C(N)=O)CSSC[C@@H](C(N)=O)NC(=O)[C@H](CCCCN)NC(=O)[C@H](CCCCN)NC1=O (KFLKKC-NH2; linker N-6 via X1) |  | > 1000 µg/mL |  |  | 1.15 10^5/M
